BindingDB's records for doi:10.1111/j.1471-4159.1989.tb07357.x (Albany Medical College, 1989)

Experiments:
[1] = biological target: 5-hydroxytryptamine receptor 1E (Homo sapiens, UniProt P28566)
[2] = biological target: 5-hydroxytryptamine 1D receptor (Bos taurus, UniProt Q8MI13)
5-hydroxytryptamine 1D receptor, sequence (Q8MI13 whole entry): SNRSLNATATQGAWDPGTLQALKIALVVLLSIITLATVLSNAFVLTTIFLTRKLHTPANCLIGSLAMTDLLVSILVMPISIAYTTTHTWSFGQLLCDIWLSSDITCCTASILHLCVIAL

5-hydroxytryptamine receptor 1E, sequence (P28566 whole entry): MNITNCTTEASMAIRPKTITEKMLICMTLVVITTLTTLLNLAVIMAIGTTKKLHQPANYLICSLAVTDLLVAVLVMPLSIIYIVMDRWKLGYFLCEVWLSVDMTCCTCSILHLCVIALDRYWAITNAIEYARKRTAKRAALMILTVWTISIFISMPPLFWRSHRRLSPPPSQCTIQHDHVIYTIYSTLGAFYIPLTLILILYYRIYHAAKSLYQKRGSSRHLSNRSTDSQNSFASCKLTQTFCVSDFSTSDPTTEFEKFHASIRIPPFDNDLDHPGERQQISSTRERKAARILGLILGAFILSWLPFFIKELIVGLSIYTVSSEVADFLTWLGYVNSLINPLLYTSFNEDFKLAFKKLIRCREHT

| SMILES | Ki [1] [nM] | Ki [2] [nM] |
| --- | --- | --- |
| CCCN(CCC)C1CCc2cccc(O)c2C1 (stereo not given) | 826 | 200 |
| CN1C2CCC1CC(OC(=O)c1c[nH]c3ccccc13)C2 (stereo not given) | > 10000 | > 10000 |
| CC[C@@H](CO)NC(=O)[C@@H]1C=C2c3cccc4c3c(cn4C)C[C@H]2N(C)C1 | 59 | 8.8 |
| COc1cc(CC(C)N)c(OC)cc1Br (stereo not drawn) [2-(4-Bromo-2,5-dimethoxy-phenyl)-1-methyl-ethylamine((-)-DOB)] | 556 | 1000 |
| O=C(c1ccc(F)cc1)C1CCN(CCn2c(=O)[nH]c3ccccc3c2=O)CC1 [3-(2-{4-[(4-fluorophenyl)carbonyl]piperidin-1-yl}ethyl)-1,2,3,4-tetrahydroquinazoline-2,4-dione] | > 10000 | 3200 |
| CN1C[C@H](C(=O)N[C@]2(C)O[C@@]3(O)[C@@H]4CCCN4C(=O)[C@H](Cc4ccccc4)N3C2=O)C=C2c3cccc4[nH]cc(c34)C[C@H]21 [12'-hydroxy-2'-methyl-5'alpha-(phenylmethyl)ergotaman-3',6',18-trione] | 155 | – |
| FC(F)(F)c1cccc(N2CCNCC2)c1 [TFMPP] | 570 | 150 |
| NCCc1c[nH]c2ccc(O)cc12 [[3H]-5-HT] | – | 1.9 |
| NCCc1c[nH]c2ccc(C(N)=O)cc12 [[3H]-5-carboxamidotryptamine] | 910 | – |
